Source: patent US10294202B2, “Pyrrolidinones as herbicides” (FMC Corporation, priority 2013, dated 2019)

Columns and labels:
pigweed = test: Test A pre-/postemergence herbicide test; format: in vivo, Amaranthus retroflexus
In short: (§1)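 Visual 0–100 ratings (100 = complete control) made about 10 days after treatment, greenhouse-held plants compared with untreated controls. Treatments: postemergence sprays on one- to two-leaf plants (2–10 cm tall) and preemergence directed soil sprays after planting in loam–sand, chemicals formulated in non-phytotoxic solvent containing surfactant.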

corn = test: Test A pre-/postemergence herbicide test; format: in vivo, Zea mays
In short: as §1

barnyardgrass [1] = test: Test C flooded paddy test; format: in vivo, Echinochloa crus-galli; conditions: Flood
In short: (§2)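 Visual ratings from 0, no effect, to 100, complete control, were made against untreated controls after 13–15 greenhouse days. Compounds had gone straight into paddy water 3 cm above the soil, kept at that depth, on 2-leaf-stage plants.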

ryegrass, Italian = test: Test A pre-/postemergence herbicide test; format: in vivo, Lolium multiflorum; conditions: for Plant response rating, Ryegrass, Italian: 0 to 100 scale
In short: as §1

sedge, umbrella = test: Test C flooded paddy test; format: in vivo, Cyperus difformis; conditions: Flood
In short: as §2

galium = test: Test A postemergence herbicide test; format: in vivo, Galium aparine
In short: (§3)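 Visual injury rating, 0 (no effect) to 100 (complete control), versus untreated controls ~10 days after treatment. Postemergence spray applied at one- to two-leaf stage, plants 2–10 cm tall, potted in loam soil/sand. Greenhouse-held.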

wheat = test: Test A pre-/postemergence herbicide test; format: in vivo, Triticum aestivum
In short: as §1

ragweed = test: Test A pre-/postemergence herbicide test; format: in vivo, Ambrosia elatior; conditions: for Plant response rating, Ragweed: 0 to 100 scale
In short: as §1

blackgrass = test: Test A postemergence herbicide test; format: in vivo, Alopecurus myosuroides
In short: as §3

kochia = test: Test A pre-/postemergence herbicide test; format: in vivo, Kochia scoparia; conditions: for Plant response rating, Kochia: 0 to 100 scale
In short: as §1

rice = test: Test C flooded paddy test; format: in vivo, Oryza sativa; conditions: Flood
In short: as §2

ducksalad = test: Test C flooded paddy test; format: in vivo, Heteranthera limosa; conditions: Flood
In short: as §2

barnyardgrass [2] = test: Test A pre-/postemergence herbicide test; format: in vivo, Echinochloa crus-galli
In short: as §1

giant foxtail = test: Test A pre-/postemergence herbicide test; format: in vivo, Setaria faberii
In short: as §1

morningglory = test: Test A pre-/postemergence herbicide test; format: in vivo, Ipomoea spp.
In short: as §1

velvetleaf = test: Test A pre-/postemergence herbicide test; format: in vivo, Abutilon theophrasti
In short: as §1

crabgrass, large = test: Test A pre-/postemergence herbicide test; format: in vivo, Digitaria sanguinalis
In short: as §1

[3] = 125 g ai/ha, visual rating, 0 to 100 scale, 0 no effect, 100 complete control, approximately 10 days, preemergence
[4] = Postemergence, 125 g ai/ha, 0 to 100 scale, 0 no effect, 100 complete control
[5] = preemergence, 500 g ai/ha, 0 to 100 scale
[6] = Postemergence, 500 g ai/ha, 0 to 100 scale (0 no effect, 100 complete control)
[7] = 125 g ai/ha, scale of 0 to 100 where 0 is no effect and 100 is complete control, 13 to 15 days
[8] = 125 g ai/ha, visual rating, 0 no effect, 100 complete control, approximately 10 days, preemergence
[9] = Postemergence, 125 g ai/ha, 0 no effect, 100 complete control
[10] = 125 g ai/ha, 0 to 100 scale, 0 no effect, 100 complete control
[11] = preemergence, 500 g ai/ha, 0 to 100 scale (0 no effect, 100 complete control)
[12] = Preemergence, 125 g ai/ha, visual rating on 0 to 100 scale (0 no effect, 100 complete control)

Structure (SMILES): O=C1NCC(c2cccc(C(F)(F)F)c2)C1C(=O)Nc1ncc(Cl)s1 (racemic) [Compound 113]
- Plant response rating, Pigweed (pigweed; [3]): 0
- Plant response rating, Pigweed (pigweed; [4]): 0
- Pigweed plant response rating (0 to 100 scale, 0 is no effect, 100 is complete control) (pigweed; Postemergence, 500 g ai/ha): 0
- Plant response rating, Pigweed (pigweed; [5]): 0
- Plant response rating, Corn (corn; [4]): 0
- Plant response rating, Corn (corn; [6]): 0
- Plant response rating, Barnyardgrass (barnyardgrass [1]; [7]): 0
- Plant response rating, Barnyardgrass (barnyardgrass [1]; 250 g ai/ha, scale 0 to 100): 0
- Plant response rating, Barnyardgrass (barnyardgrass [1]; 500 g ai/ha, scale 0 to 100): 0
- Plant response rating, Barnyardgrass (barnyardgrass [1]; 1000 g ai/ha, scale 0 to 100): 0
- Plant response rating, Ryegrass, Italian (ryegrass, Italian; [8]): 0
- Plant response rating, Ryegrass, Italian (ryegrass, Italian; [9]): 0
- Ryegrass, Italian plant response rating (0 to 100 scale, 0 is no effect, 100 is complete control) (ryegrass, Italian; Postemergence, 500 g ai/ha): 0
- Plant response rating, Ryegrass, Italian (ryegrass, Italian; preemergence, 500 g ai/ha): 0
- Plant response rating, Sedge, Umbrella (sedge, umbrella; [7]): 0
- Plant response rating, Sedge, Umbrella (sedge, umbrella; 250 g ai/ha, scale 0 to 100): 0
- Plant response rating, Sedge, Umbrella (sedge, umbrella; 500 g ai/ha, scale 0 to 100): 0
- Plant response rating, Sedge, Umbrella (sedge, umbrella; 1000 g ai/ha, scale 0 to 100): 0
- Plant response rating, Galium (galium; [10]): 0
- Galium plant response rating (0 to 100 scale, 0 is no effect, 100 is complete control) (galium; 500 g ai/ha): 0
- Plant response rating, Wheat (wheat; [4]): 0
- Wheat plant response rating (0 to 100 scale, 0 is no effect, 100 is complete control) (wheat; Postemergence, 500 g ai/ha): 0
- Plant response rating, Ragweed (ragweed; [8]): 0
- Plant response rating, Ragweed (ragweed; [9]): 0
- Ragweed plant response rating (0 to 100 scale, 0 is no effect, 100 is complete control) (ragweed; Postemergence, 500 g ai/ha): 0
- Plant response rating, Ragweed (ragweed; preemergence, 500 g ai/ha): 0
- Plant response rating, Blackgrass (blackgrass; [10]): 0
- Plant response rating, Blackgrass (blackgrass; 500 g ai/ha, 0 to 100 scale (0 no effect, 100 complete control)): 0
- Plant response rating, Kochia (kochia; [8]): 0
- Plant response rating, Kochia (kochia; [9]): 0
- Kochia plant response rating (0 to 100 scale, 0 is no effect, 100 is complete control) (kochia; Postemergence, 500 g ai/ha): 0
- Plant response rating, Kochia (kochia; preemergence, 500 g ai/ha): 0
- Plant response rating, Rice (rice; [7]): 0
- Plant response rating, Rice (rice; 250 g ai/ha, scale 0 to 100): 0
- Plant response rating, Rice (rice; 500 g ai/ha, scale 0 to 100): 0
- Plant response rating, Rice (rice; 1000 g ai/ha, scale 0 to 100): 0
- Plant response rating, Ducksalad (ducksalad; [7]): 20
- Plant response rating, Ducksalad (ducksalad; 250 g ai/ha, scale 0 to 100): 30
- Plant response rating, Ducksalad (ducksalad; 500 g ai/ha, scale 0 to 100): 50
- Plant response rating, Ducksalad (ducksalad; 1000 g ai/ha, scale 0 to 100): 70
- Plant response rating, Barnyardgrass (barnyardgrass [2]; [3]): 0
- Plant response rating, Barnyardgrass (barnyardgrass [2]; [4]): 0
- Plant response rating, Barnyardgrass (barnyardgrass [2]; [6]): 0
- Plant response rating, Barnyardgrass (barnyardgrass [2]; [11]): 0
- Plant response rating, Foxtail, Giant (giant foxtail; [3]): 0
- Plant response rating, Foxtail, Giant (giant foxtail; [4]): 0
- Foxtail, Giant plant response rating (0 to 100 scale, 0 is no effect, 100 is complete control) (giant foxtail; Postemergence, 500 g ai/ha): 0
- Plant response rating, Foxtail, Giant (giant foxtail; [5]): 0

Structure (SMILES): O=C1NC[C@@H](c2ccc(F)c(F)c2)[C@@H]1C(=O)Nc1ccccc1F [Compound 102]
- Plant response rating, Morningglory (morningglory; [4]): 0
- Plant response rating, Morningglory (morningglory; [6]): 0
- Morningglory plant response rating (morningglory; [12]): 0
- Plant response rating, Morningglory (morningglory; [5]): 0
- Plant response rating, Velvetleaf (velvetleaf; [4]): 0
- Plant response rating, Velvetleaf (velvetleaf; [6]): 0
- Velvetleaf plant response rating (velvetleaf; [12]): 0
- Plant response rating, Velvetleaf (velvetleaf; [5]): 0
- Plant response rating, Pigweed (pigweed; [4]): 0
- Plant response rating, Pigweed (pigweed; [6]): 0
- Pigweed plant response rating (pigweed; [12]): 0
- Plant response rating, Pigweed (pigweed; [5]): 0
- Plant response rating, Corn (corn; [4]): 0
- Plant response rating, Corn (corn; [6]): 0
- Corn plant response rating (corn; [12]): 0
- Plant response rating, Corn (corn; [5]): 0
- Plant response rating, Barnyardgrass (barnyardgrass [1]; [7]): 0
- Plant response rating, Barnyardgrass (barnyardgrass [1]; 250 g ai/ha, scale 0 to 100): 0
- Plant response rating, Barnyardgrass (barnyardgrass [1]; 500 g ai/ha, scale 0 to 100): 0
- Plant response rating, Barnyardgrass (barnyardgrass [1]; 1000 g ai/ha, scale 0 to 100): 0
- Plant response rating, Sedge, Umbrella (sedge, umbrella; [7]): 0
- Plant response rating, Sedge, Umbrella (sedge, umbrella; 250 g ai/ha, scale 0 to 100): 0
- Plant response rating, Sedge, Umbrella (sedge, umbrella; 500 g ai/ha, scale 0 to 100): 0
- Plant response rating, Sedge, Umbrella (sedge, umbrella; 1000 g ai/ha, scale 0 to 100): 0
- Plant response rating, Wheat (wheat; [4]): 0
- Plant response rating, Wheat (wheat; [6]): 0
- Wheat plant response rating (wheat; [12]): 0
- Plant response rating, Wheat (wheat; [5]): 0
- Plant response rating, Crabgrass, Large (crabgrass, large; [4]): 0
- Plant response rating, Crabgrass, Large (crabgrass, large; [6]): 0
- Crabgrass, Large plant response rating (crabgrass, large; [12]): 0
- Plant response rating, Crabgrass, Large (crabgrass, large; [5]): 0
- Plant response rating, Rice (rice; [7]): 0
- Plant response rating, Rice (rice; 250 g ai/ha, scale 0 to 100): 0
- Plant response rating, Rice (rice; 500 g ai/ha, scale 0 to 100): 0
- Plant response rating, Rice (rice; 1000 g ai/ha, scale 0 to 100): 0
- Plant response rating, Ducksalad (ducksalad; [7]): 0
- Plant response rating, Ducksalad (ducksalad; 250 g ai/ha, scale 0 to 100): 0
- Plant response rating, Ducksalad (ducksalad; 500 g ai/ha, scale 0 to 100): 0
- Plant response rating, Ducksalad (ducksalad; 1000 g ai/ha, scale 0 to 100): 0
- Plant response rating, Barnyardgrass (barnyardgrass [2]; [4]): 0
- Plant response rating, Barnyardgrass (barnyardgrass [2]; [6]): 0
- Barnyardgrass plant response rating (barnyardgrass [2]; [12]): 0
- Plant response rating, Barnyardgrass (barnyardgrass [2]; [11]): 0
- Plant response rating, Foxtail, Giant (giant foxtail; [4]): 0
- Plant response rating, Foxtail, Giant (giant foxtail; [6]): 0
- Foxtail, Giant plant response rating (giant foxtail; [12]): 0
- Plant response rating, Foxtail, Giant (giant foxtail; [5]): 0
